Data as given in the supplement of paper PMC10307832.

Legend:
Test in all cases: relative viability (nuclei count vs DMSO), 5 days (fraction); higher = more cells survive
[1] = compound: CN[C@@H]1C[C@H]2O[C@@](C)([C@@H]1OC)n1c3ccccc3c3c4c(c5c6ccccc6n2c5c31)C(=O)NC4 [Staurosporine] + CS(=O)(=O)CCNCc1ccc(-c2ccc3ncnc(Nc4ccc(OCc5cccc(F)c5)c(Cl)c4)c3c2)o1 [Lapatinib] (partner 2 µM)
Procedure, shortened: (§1)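 Each reported value is a median over duplicate plates. It expresses relative viability: treated-well nuclei count divided by vehicle-well nuclei count. Lung cancer cell lines in 1536-well plates were dosed by pin tool a day after seeding, alone with one drug or with a fixed anchor-drug dose plus five library-drug doses (not always all listed) in √10 steps, and nuclei were counted after 5 days.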

[2] = compound: CN[C@@H]1C[C@H]2O[C@@](C)([C@@H]1OC)n1c3ccccc3c3c4c(c5c6ccccc6n2c5c31)C(=O)NC4 [Staurosporine] + C[C@@H](Oc1cc(-c2cnn(C3CCNCC3)c2)cnc1N)c1c(Cl)ccc(F)c1Cl [Crizotinib] (partner 1 µM)
Procedure, shortened: as §1

[3] = compound: O=c1[nH]cc(F)c(=O)[nH]1 [5-Fluorouracil] + Cc1nc(Nc2ncc(C(=O)Nc3c(C)cccc3Cl)s2)cc(N2CCN(CCO)CC2)n1 [Dasatinib] (partner 0.075 µM)
Procedure, shortened: as §1

| Cell Line | relative viability ([1]; first compound 0.005 µM) | relative viability ([1]; first compound 0.01581 µM) | relative viability ([1]; first compound 0.05 µM) | relative viability ([1]; first compound 0.1581 µM) | relative viability ([1]; first compound 0.5 µM) | relative viability ([2]; first compound 0.005 µM) | relative viability ([2]; first compound 0.01581 µM) | relative viability ([2]; first compound 0.05 µM) | relative viability ([2]; first compound 0.1581 µM) | relative viability ([2]; first compound 0.5 µM) | relative viability ([3]; first compound 0.02 µM) | relative viability ([3]; first compound 0.2 µM) | relative viability ([3]; first compound 0.6325 µM) | relative viability ([3]; first compound 2 µM) |
| --- | --- | --- | --- | --- | --- | --- | --- | --- | --- | --- | --- | --- | --- | --- |
| NCI-H2170 | 0.289 | 0.236 | 0.258 | 0.197 | 0.193 | 1.43 | 0.754 | 0.92 | 0.195 | 0.311 | 0.566 | 0.53 | 0.393 | 0.28 |
| HCC-366 | 1.22 | – | 0.278 | 0.0407 | 0.0187 | 0.972 | – | 0.171 | 0.0224 | 0.0156 | 0.559 | 0.61 | 0.249 | 0.0872 |
| NCI-H2405 | 0.395 | 0.148 | 0.113 | 0.0819 | 0.0797 | 0.681 | 0.319 | 0.146 | 0.125 | 0.106 | 0.217 | 0.231 | 0.197 | 0.224 |
| COR-L 105 | 0.354 | 0.247 | 0.247 | 0.243 | 0.218 | 0.45 | 0.405 | – | 0.307 | 0.195 | 0.292 | 0.362 | 0.29 | 0.244 |
| 201T | 1.04 | 0.957 | 0.948 | 0.895 | 0.637 | 1.03 | 0.994 | 0.962 | 0.847 | 0.724 | 0.592 | 0.555 | 0.348 | 0.284 |
| NCI-H2228 | 0.88 | 0.49 | 0.346 | 0.137 | 0.115 | 0.292 | 0.234 | 0.177 | 0.169 | 0.132 | 0.562 | 0.457 | 0.349 | 0.268 |
| LC-2-ad | 0.957 | 0.127 | 0.47 | 0.0776 | 0.0569 | 0.442 | 0.368 | 0.266 | 0.167 | 0.116 | 0.785 | 0.354 | 0.328 | 0.209 |
| NCI-H2087 | 0.755 | 0.548 | 0.427 | 0.206 | 0.105 | 0.767 | 0.392 | 0.344 | 0.137 | 0.12 | 0.917 | 0.835 | 0.532 | 0.483 |
| NCI-H358 | 0.534 | 0.378 | 0.259 | 0.152 | 0.136 | 0.386 | 0.225 | 0.106 | 0.116 | 0.0764 | 0.206 | 0.199 | 0.2 | 0.161 |
| H3255 | 0.138 | 0.0852 | 0.124 | 0.142 | 0.137 | 0.591 | 0.495 | 0.25 | 0.174 | 0.0875 | 0.304 | 0.5 | 0.328 | 0.359 |
| NCI-H23 | 0.886 | 0.184 | 0.357 | 0.172 | 0.134 | 0.296 | 0.234 | 0.193 | 0.176 | 0.125 | 0.789 | 0.991 | 0.475 | 0.278 |
| CAL-12T | 0.356 | 0.198 | 0.214 | 0.192 | 0.194 | 0.16 | 0.0981 | 0.0843 | 0.113 | 0.0906 | 0.403 | 0.371 | 0.282 | 0.261 |
| A-427 | 0.967 | 0.245 | 0.56 | 0.303 | 0.175 | 0.841 | 0.582 | 0.236 | 0.126 | 0.122 | 0.562 | 0.764 | 0.618 | 0.353 |
| HARA | 0.485 | 0.327 | 0.308 | 0.118 | 0.0844 | 0.756 | 0.558 | 0.158 | 0.147 | – | 0.274 | 0.388 | 0.232 | 0.192 |
| NCI-H1793 | 0.829 | 0.281 | 0.527 | 0.216 | 0.18 | – | – | – | – | – | 0.378 | 0.413 | 0.368 | 0.313 |
| NCI-H1623 | – | – | – | – | – | – | – | – | – | – | 0.412 | 0.64 | 0.256 | 0.232 |
| NCI-H2023 | 0.509 | 0.11 | 0.18 | 0.0948 | 0.0518 | 0.262 | 0.288 | 0.132 | 0.0749 | 0.0599 | 0.542 | 0.185 | 0.102 | 0.0866 |
| ABC-1 | 0.953 | 0.799 | 0.608 | 0.339 | 0.502 | 0.43 | 0.285 | 0.149 | 0.0998 | 0.0958 | 0.561 | 0.662 | 0.576 | 0.558 |
| IA-LM | 0.194 | 0.194 | 0.158 | 0.208 | 0.074 | 0.253 | 0.073 | 0.319 | 0.148 | 0.0488 | – | – | – | – |
| NCI-H441 | – | – | – | – | – | 0.8 | 0.29 | 0.3 | 0.179 | 0.156 | 0.748 | 0.63 | 0.49 | 0.278 |
| NCI-H1915 | 1.05 | – | 0.584 | 0.272 | 0.192 | 0.903 | – | 0.362 | 0.294 | 0.268 | 0.305 | 0.31 | 0.303 | 0.266 |
| LXF-289 | 0.725 | – | 0.389 | 0.109 | 0.0903 | 0.751 | – | 0.258 | 0.0796 | 0.0672 | 0.192 | 0.202 | 0.152 | 0.154 |
| HCC-827 | 0.223 | 0.186 | 0.182 | 0.125 | 0.163 | 0.927 | 0.803 | 0.583 | 0.575 | 0.442 | 0.254 | 0.335 | 0.305 | 0.337 |
| EMC-BAC-2 | 0.427 | 0.498 | 0.178 | 0.188 | 0.167 | 0.452 | 0.215 | 0.132 | 0.177 | 0.137 | 0.343 | 0.332 | 0.368 | 0.35 |
| NCI-H647 | 0.603 | 0.262 | 0.253 | 0.0661 | 0.0597 | 0.53 | 0.295 | 0.162 | 0.0569 | 0.0579 | 0.193 | 0.232 | 0.206 | 0.188 |
